# Columns and labels:
# [1] = system: eNAMPT-mediated mitochondrial fission; experiment: eNAMPT-mediated mitochondrial fission; type: cell-based; conditions: FIG. 5A
# Procedure: (§1) FIGS. 5A-5C show the validation of novel Drp1 inhibitors as therapeutics against VILI. Three novel Drp1 inhibitors identified in the Drp1 GTPase assay were tested for their ability to attenuate eNAMPT-mediated mitochondrial fission (5A). One of the compounds CTS2444-32 was further tested in mice exposed to high tidal mechanical ventilation (40 mL/kg, PEEP=5 cm H2O, BR=75 bpm, 4 h). […] Values are mean±SEM, n=4. *P<0.05 vs. spontaneously breathing control, †P<0.05 vs. DMSO+VILI.
# Three lead compounds (FIG. 4) were selected for further testing. These compounds are referred to as CTS (Center for Translational Science) 2444-19, CTS2444-20, and CTS2444-32. These compounds were examined for their ability to prevent eNAMPT-mediated mitochondrial fission.
# [2] = system: ventilator-induced lung injury (VILI); experiment: VILI model: mice exposed to high tidal mechanical ventilation; type: in vivo; conditions: 10 mg/kg, i.p., 2 h
# Procedure: as §1
# CTS2444-32 (10 mg/kg, i.p., 2 h) attenuated the VILI-mediated increase in the levels of TNFα (6A), IL-6 (6B), IL-18 (6C), GROα, (6D), MIP-1α (6E), MIP-1β(6F), MCP-1 (6G), MCP-3 (6H), and IL-12p70 (6I) in the BALF. Values are mean±SEM, n=4. *P<0.05 vs. spontaneously beathing control, †P<0.05 vs. DMSO+VILI.
# To validate Drp1 as a therapeutic target, four preclinical VILI/ARDS models are used: i) VILI; ii) a “two-hit” model of polymicrobial sepsis (cecal ligation and puncture, CLP) in addition to mechanical ventilation; iii) a “two-hit” COV19-pneumonia model consisting of the delivery of the COVID19 spike protein combined with mechanical ventilation and iv) the ARDS-like extended lung inflammation model in which the mice are exposed long-term to LPS. Therapeutic agents are given before the initiation of injury in the VILI-only model or at the beginning of mechanical ventilation in the “two-hit” models, or 4 d after LPS exposure in the extended lung inflammation model to mimic the situation of a critically ill patient in the ICU.
# [3] = system: LUHMES cells; experiment: α-synuclein PFF aggregation in LUHMES cells (pS129 immunostaining); type: cell-based, human; conditions: PFF 24 h, then 20 μM compound for 48 h
# Procedure: To determine the therapeutic potential of compound 2444-32 against α-synuclein, human dopaminergic neuronal cells (LUHMES cells) were treated with human α-synuclein pre-formed fibrils (PFF). After 24 h incubation, cell culture media containing PFF was removed and replaced with fresh media containing 20 μM of compound 2444-32 or vehicle control. Cells were incubated for a further 48 h before having media removed and processed for immunostaining for pS129 α-synuclein, a pathogenic form of α-synuclein. α-synuclein protein aggregates were then quantified using the IMARIS (Oxford instruments) software.
# [4] = system: mouse primary microglia; experiment: Paraquat-treated primary microglia, qPCR of inflammatory mRNA; type: cell-based; conditions: 6 h
# Procedure: Microglia cells were treated with paraquat (PQ) in the presence or absence of compound 2444-32. The mRNA levels of IL-1β and RelA were analyzed. Microglia isolated from Drp1+/− pups was used as a positive control.
# Neuroinflammation is commonly observed in Parkinson's disease (PD) and other neurodegenerative diseases. The role of activated microglia in causing neuroinflammation by upregulating the levels of pro-inflammatory cytokines such as IL-1β and relA is implicated in PD. The protective effects of one lead compound (2444-32) was evaluated using mouse primary microglia isolated from newborn pups. As shown in the FIG. 7, these cells were treated for with paraquat (PQ), a herbicide that has been linked to increasing the risk of developing PD, in the presence or absence of compound 2444-32. After 6 h, RNA was isolated for qPCR analysis. There was a dramatic increase in the levels of IL-1β and RelA mRNA. […] As a positive control model for a partial loss of Drp1 function, microglia isolated from Drp1+/− pups was used, which express approximately 50% of Drp1 as compared to their wild-type littermates. Significant reduction in neuroinflammation was also detected in these mutant microglia treated with PQ, indicating the protective effects of 2444-32 was most likely mediated through reduced Drp1 function, not off-target effects.
# [5] = system: lung cancer tumor; conditions: xenograft mouse model; background statement; cited from earlier work
# [6] = system: cell proliferation; conditions: background statement; cited from earlier work
# [7] = system: cardiac ischemia-reperfusion injury; conditions: background statement; cited from earlier work
# [8] = system: lung EC; experiment: LPS (TLR4)-dependent mitochondrial fission in lung EC; type: cell-based; conditions: LPS 2 EU/ml, 4 h; FIG. 1C
# Procedure: TLR^4 ligation with LPS (2 EU/ml, 4 h) also increases mitochondrial fission and this is blocked by the putative Drp1 inhibitor, mdivi-1 (1C). Data are mean±SEM. N=3-10. P<0.05 vs. control.
# Using immunofluorescence microscopy, increased mitochondrial localization of Drp1 was observed (FIG. 1B).
# [9] = system: Drp1 GTPase; conditions: background statement; cited from earlier work
# [10] = system: complex I; conditions: background statement; cited from earlier work
# [11] = target: T1, dynamin 2 (Homo sapiens, UniProt P50570); conditions: background statement; cited from earlier work
# T1 sequence (P50570 1-870): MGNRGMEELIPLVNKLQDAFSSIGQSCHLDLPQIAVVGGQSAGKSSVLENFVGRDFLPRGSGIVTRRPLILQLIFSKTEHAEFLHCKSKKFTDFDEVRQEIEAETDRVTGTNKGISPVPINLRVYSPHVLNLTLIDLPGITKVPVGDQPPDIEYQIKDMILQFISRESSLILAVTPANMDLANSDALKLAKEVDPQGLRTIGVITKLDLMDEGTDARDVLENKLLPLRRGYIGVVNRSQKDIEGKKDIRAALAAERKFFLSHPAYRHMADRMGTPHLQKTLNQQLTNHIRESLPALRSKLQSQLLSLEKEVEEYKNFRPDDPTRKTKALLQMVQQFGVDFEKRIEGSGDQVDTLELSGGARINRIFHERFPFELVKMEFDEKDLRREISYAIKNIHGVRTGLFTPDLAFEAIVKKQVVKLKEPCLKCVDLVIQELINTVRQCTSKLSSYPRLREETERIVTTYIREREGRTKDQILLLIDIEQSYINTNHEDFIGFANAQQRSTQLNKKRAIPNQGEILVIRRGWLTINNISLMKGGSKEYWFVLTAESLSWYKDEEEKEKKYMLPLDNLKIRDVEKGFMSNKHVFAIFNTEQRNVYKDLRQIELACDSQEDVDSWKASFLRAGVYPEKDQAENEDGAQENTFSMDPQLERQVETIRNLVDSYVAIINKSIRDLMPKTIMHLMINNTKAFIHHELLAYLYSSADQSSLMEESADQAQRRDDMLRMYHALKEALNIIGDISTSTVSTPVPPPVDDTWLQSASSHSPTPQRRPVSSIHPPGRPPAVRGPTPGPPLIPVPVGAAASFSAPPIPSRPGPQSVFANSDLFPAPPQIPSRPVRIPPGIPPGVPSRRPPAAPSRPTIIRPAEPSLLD
# [12] = target: T2, dynamin 1 (Homo sapiens, UniProt Q05193); conditions: background statement; cited from earlier work
# T2 sequence (Q05193 1-864): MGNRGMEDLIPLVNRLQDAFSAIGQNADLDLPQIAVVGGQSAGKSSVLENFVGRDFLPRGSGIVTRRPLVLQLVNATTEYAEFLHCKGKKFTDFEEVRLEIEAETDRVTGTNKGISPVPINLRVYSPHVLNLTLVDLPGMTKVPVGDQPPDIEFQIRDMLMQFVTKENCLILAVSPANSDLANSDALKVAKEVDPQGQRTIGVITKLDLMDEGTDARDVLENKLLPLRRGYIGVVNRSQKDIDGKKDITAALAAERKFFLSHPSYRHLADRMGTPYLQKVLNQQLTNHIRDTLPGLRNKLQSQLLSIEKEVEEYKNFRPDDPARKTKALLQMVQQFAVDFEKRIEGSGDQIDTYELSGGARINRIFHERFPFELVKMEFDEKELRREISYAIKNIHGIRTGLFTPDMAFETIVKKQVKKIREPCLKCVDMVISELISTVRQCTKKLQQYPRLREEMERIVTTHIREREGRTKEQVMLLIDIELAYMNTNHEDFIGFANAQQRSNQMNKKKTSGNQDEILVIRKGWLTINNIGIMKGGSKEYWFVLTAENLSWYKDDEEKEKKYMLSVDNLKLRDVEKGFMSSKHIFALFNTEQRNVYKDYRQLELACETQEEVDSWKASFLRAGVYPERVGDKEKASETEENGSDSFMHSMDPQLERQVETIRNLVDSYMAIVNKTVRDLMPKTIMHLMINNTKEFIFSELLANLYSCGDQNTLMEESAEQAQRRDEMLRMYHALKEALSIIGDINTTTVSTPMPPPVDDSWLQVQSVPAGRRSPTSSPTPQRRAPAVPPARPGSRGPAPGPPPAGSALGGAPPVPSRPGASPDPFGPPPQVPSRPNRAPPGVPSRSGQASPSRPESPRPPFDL
smiles,measurement,setting,value
O=C(Cc1ccc(Cl)c(Cl)c1)N1CCN(Cc2csc(NCC3(c4ccccc4)CC3)n2)CC1 [Compound 2444-19],increase in fission induced by eNAMPT,[1],not
O=C(CC1CC2CCC1C2)N1CCN(Cc2csc(NCC3CCC3)n2)CC1 (centres unmarked) [Compound 2444-32],VILI-mediated increase in TNFα in BALF,[2]; FIG. 6A,attenuated
same,VILI-mediated increase in IL-6 in BALF,[2]; FIG. 6B,attenuated
same,VILI-mediated increase in IL-18 in BALF,[2]; FIG. 6C,attenuated
same,VILI-mediated increase in GROα in BALF,[2]; FIG. 6D,attenuated
same,VILI-mediated increase in MIP-1α in BALF,[2]; FIG. 6E,attenuated
same,VILI-mediated increase in MIP-1β in BALF,[2]; FIG. 6F,attenuated
same,VILI-mediated increase in MCP-1 in BALF,[2]; FIG. 6G,attenuated
same,VILI-mediated increase in MCP-3 in BALF,[2]; FIG. 6H,attenuated
same,VILI-mediated increase in IL-12p70 in BALF,[2]; FIG. 6I,attenuated
same,total cell counts in bronchoalveolar lavage (BAL) fluid,"[2]; high tidal ventilation 40 mL/kg, 4 h, FIG. 5B",decreases
same,protein in bronchoalveolar lavage (BAL) fluid,"[2]; high tidal ventilation 40 mL/kg, 4 h, FIG. 5C",decreases
same,lung injury,[2]; mice exposed to VILI,decreases lung injury
same,α-synuclein aggregation (puncta),[3],significantly reduced
same,increase in fission induced by eNAMPT,[1],prevent the increase in fission induced by eNAMPT
same,paraquat-induced increase in IL-1β mRNA,[4],significantly attenuated
same,paraquat-induced increase in RelA mRNA,[4],significantly attenuated
O=C1c2ccncc2C(=O)c2c1[nH]c1ccccc21 [Drpitor1a],lung cancer tumor growth,[5],suppress lung cancer tumor growth
same,cell proliferation,[6],reduce cell proliferation
same,protection against cardiac ischemia-reperfusion injury,[7],protect against cardiac ischemia-reperfusion injury
COc1cc(-n2c(=S)[nH]c3ccccc3c2=O)c(Cl)cc1Cl [mdivi-1],TLR4-dependent mitochondrial fission,[8],decreases TLR4-dependent mitochondrial fission
same,inhibition of Drp1 GTPase activity,[9],weak and non-specific inhibitor
same,inhibition of complex I,[10],reversible inhibitor
CCCCNc1nc(CN2CCN(C(=O)CC3CC4CCC3C4)CC2)cs1 (centres unmarked) [Compound 2444-20],increase in fission induced by eNAMPT,[1],prevent the increase in fission induced by eNAMPT
O=C(N/N=C/c1ccc(O)c(O)c1)c1cc2ccccc2cc1O [Dynasore],inhibition of dynamin 2,[11],blocks
same,inhibition of dynamin 1,[12],blocks
